Here are results for five molecules from US9328131B2, “Benzimidazolium compounds” (Boehringer Ingelheim International GmbH, priority 2013, dated 2016).

The subject of one data set is Mouse kidney M-1 cells. As to the kind of experiment: Ussing Chamber assay: inhibition of amiloride sensitive short circuit current. The format is cell-based. Particulars: compound in the apical solution, 37° C. The procedure: Ussing Chamber: Mouse kidney M-1 cells were cultivated in DMEM containing 5% FCS and 5 μM dexamethasone for 10 to 12 days on polyester transwell filters. Filters were inserted into a teflon-coated well-plate which fit into the ussing chamber system. Prior to measurement the medium of M−1 cells was replaced with Caco-2 transport buffer (Invitrogen, Germany). During measurements, the Ussing chamber temperature was kept at 37° C. Short circuit currents (l_sc) were measured in the voltage-clamp mode with the software package Lab View for data acquisition and analysis. The transepithelial electrical resistance (TEER) was determined by the application of voltage steps of ±5 mV every 5 sec. Compounds were administered at a final concentration of 3 μM or at increasing concentrations (1-3-10 μM) to the apical solution. At the end of each experiment the amiloride sensitive l_SC was measured by adding 3 μM amiloride to the apical compartment. Results are expressed as inhibition in percent of the amiloride effect or as IC50.
With the example compounds given above, the following IC50 values were determined in the Ussing Chamber assay: […]

A short description of data set [1]: Permeability in CALU-3 cells. In kind it is in vitro ADME. Particulars: human, CALU-3 monolayers, pH 7.4, 37° C., 10 μM compound. The procedure: Permeability in CALU-3 cells:
Permeability measurements across polarized, confluent CALU-3 cell monolayers grown on permeable filter supports are used to provide information on the potential of a compound to pass the lung epithelium. Apparent permeability coefficients (Papp) of the compounds across the CALU-3 cell monolayers are measured (pH 7.4, 37° C.) in apical-to-basal (AB) and basal-to-apical (BA) transport direction.
CALU-3 cells (1−2×10^5 cells/1 cm^2 area) are seeded on filter inserts (Costar transwell polycarbonate filters, 0.4 μm pore size) and cultured (DMEM) for 10-12 days until tight monolayers are formed. Compounds of interest are dissolved in appropriate solvent (DMSO, 10 mM stock solution). Stock solutions are diluted with HTP-4 buffer (128.13 mM NaCl, 5.36 mM KCl, 1 mM MgSO4, 1.8 mM CaCl2, 4.17 mM NaHCO3, 1.19 mM Na2HPO4×7H2O, 0.41 mM NaH2PO4×H2O, 15 mM HEPES, 20 mM glucose, 0.25% BSA, pH 7.4) to prepare the transport solutions (10 μM compound, final DMSO<=0.5%). The transport solution (TL) is applied to the apical or basolateral donor side for measuring A-B or B-A permeability (3 filter replicates), respectively. The receiver side contains the same buffer as the donor side. After 30 min of accommodation, samples are collected at the start t0=0 min and at the end of the experiment tn=90 min from the donor and at 0, 30, 60, and 90 min also from the receiver chamber. Volume removed is replenished by HTP-4 buffer. The compound concentration in the samples is measured by HPLC-MS/MS or scintillation counting. The permeability coefficient (Papp) and efflux ratio are calculated according to: Papp[cm/s]=(concentration receiver[nM]*volume receiver[mL]/time interval[sec])*(1/filter area)*(1/donor concentration[nM])
With example compounds given above, the following permeability values were determined in the CALU-3 cells assay: […]

On to `CC[n+]1c(CNC(=O)c2nc(Cl)c(N)nc2N)n(C2CCN(C(C)=O)CC2)c2ccccc21.O=C[O-]` [Example 3.1], for which it took 5 nM to reach half-maximal inhibition with Mouse kidney M-1 cells (IC50). The molecule also displayed a Papp A→B at 90 min, 10 μM in data set [1] (apical-to-basal) of 1.7 ×10⁻⁶ cm/s. The molecule further gave a Papp B→A at 90 min, 10 μM in data set [1] (basal-to-apical) of 0.45 ×10⁻⁶ cm/s.

For `CCOP(=O)(OCC)c1ccc(CCC[n+]2c(CNC(=O)c3nc(Cl)c(N)nc3N)n(CC)c3cc(OC)ccc32)cc1.O=C([O-])C(F)(F)F` [Example 1.1], the IC50 with Mouse kidney M-1 cells stood at 2 nM. The molecule also had a Papp A→B at 90 min, 10 μM in data set [1] (apical-to-basal) of 0.16 ×10⁻⁶ cm/s. For the same molecule, the Papp B→A at 90 min, 10 μM in data set [1] (basal-to-apical) was determined as 0.28 ×10⁻⁶ cm/s.

Turning to `CCOP(=O)([O-])CCCn1c(CNC(=O)c2nc(Cl)c(N)nc2N)[n+](CC)c2cc(OC)ccc21` [Example 5.1], half-maximal inhibition with Mouse kidney M-1 cells (IC50) was put at 29 nM. Further, the Papp A→B in data set [1] (apical-to-basal) was found to be 0.17 ×10⁻⁶ cm/s. This molecule gave a Papp B→A in data set [1] (basal-to-apical) of 0.05 ×10⁻⁶ cm/s.

Consider `CC[n+]1c(CNC(=O)c2nc(Cl)c(N)nc2N)n(CCCP(=O)(O)O)c2ccc(OC)cc21.O=C([O-])C(F)(F)F` [Example 4.1], for which, in the data set on Mouse kidney M-1 cells, the IC50 stood at 56 nM. For the same molecule, in data set [1] (apical-to-basal), the Papp A→B at 90 min, 10 μM was under 0.34 ×10⁻⁶ cm/s. The Papp B→A at 90 min, 10 μM in data set [1] (basal-to-apical) stood at 0.08 ×10⁻⁶ cm/s.

Turning to `CCn1c(CNC(=O)c2nc(Br)c(N)nc2N)[n+](CCOCCOCCO)c2ccc(OC)cc21.O=C([O-])C(F)(F)F` [Example 2.1], the IC50 in the data set on Mouse kidney M-1 cells worked out at 1 nM. The same molecule yielded a Papp A→B at 90 min, 10 μM in data set [1] (apical-to-basal) of 0.23 ×10⁻⁶ cm/s. This molecule also had a Papp B→A at 90 min, 10 μM in data set [1] (basal-to-apical) of 0.4 ×10⁻⁶ cm/s.
